Data as given in PMC6416464 (Drug Metabolism Letters, 2018).

What was measured:
[1] = pulmonary tuberculosis patients; cited from earlier work
[2] = Metabolic stability, incubation with human liver microsomes; conditions: 1 µM test compound, 0.5 mg/mL protein
CYP2C8 = biological target: T1, CYP2C8 (Homo sapiens, UniProt P10632); experiment: CYP inhibition in human liver microsomes, CYP2C8; conditions: human, human liver microsomes, pH 7.4, probe paclitaxel
T1 sequence (P10632 1-490): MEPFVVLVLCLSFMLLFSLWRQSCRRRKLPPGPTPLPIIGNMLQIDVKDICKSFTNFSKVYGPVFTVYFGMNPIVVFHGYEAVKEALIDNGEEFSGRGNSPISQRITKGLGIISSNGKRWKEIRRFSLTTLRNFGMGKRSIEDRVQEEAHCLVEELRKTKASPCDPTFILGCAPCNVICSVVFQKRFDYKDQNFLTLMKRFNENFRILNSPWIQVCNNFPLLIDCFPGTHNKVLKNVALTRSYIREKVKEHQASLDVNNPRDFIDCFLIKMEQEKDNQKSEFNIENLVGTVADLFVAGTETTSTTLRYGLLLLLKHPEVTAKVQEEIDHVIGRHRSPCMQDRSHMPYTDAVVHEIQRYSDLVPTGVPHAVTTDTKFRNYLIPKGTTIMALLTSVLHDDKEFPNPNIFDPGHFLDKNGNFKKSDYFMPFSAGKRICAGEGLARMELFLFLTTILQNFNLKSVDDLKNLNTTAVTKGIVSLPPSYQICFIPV

[3] = with CYP3A4 inhibitor grapefruit juice; cited from earlier work
rCYP2C8 = biological target: T2, rCYP2C8 (Homo sapiens, UniProt P10632); experiment: Metabolic stability / reaction phenotyping with recombinant human CYP2C8; conditions: for % Metabolized at 30 min Incubation with Human Liver Fractions/Enzymes rCYP2C8: 1 µM test compound, 100 pmol/mL; for % Contribution of CYP Enzymes (fmCYP) in Metabolism, CYP2C8 / Predicted Microsomal Clint, CYP2C8 / rCYP Clint, CYP2C8: human, recombinant human CYP2C8, 1 µM, pH 7.4
T2 sequence (P10632 1-490): T1 sequence (P10632 1-490)

rCYP2C9 = rCYP2C9 (Homo sapiens, UniProt P11712); experiment: Metabolic stability / reaction phenotyping with recombinant human CYP2C9; conditions: for % Metabolized at 30 min Incubation with Human Liver Fractions/Enzymes rCYP2C9: 1 µM test compound, 100 pmol/mL
rCYP2C19 = rCYP2C19 (Homo sapiens, UniProt P33261); experiment: Metabolic stability / reaction phenotyping with recombinant human CYP2C19; conditions: for % Metabolized at 30 min Incubation with Human Liver Fractions/Enzymes rCYP2C19: 1 µM test compound, 100 pmol/mL; for % Contribution of CYP Enzymes (fmCYP) in Metabolism, CYP2C19 / Predicted Microsomal Clint, CYP2C19 / rCYP Clint, CYP2C19: human, recombinant human CYP2C19, 1 µM, pH 7.4
CYP2C9 = CYP2C9 (Homo sapiens, UniProt P11712); experiment: CYP inhibition in human liver microsomes, CYP2C9; conditions: inhibitor 10 µM; HLM; NI: No Inhibitin; 10 µM
rCYP1A2 = biological target: T3, rCYP1A2 (Homo sapiens, UniProt P05177); experiment: Metabolic stability / reaction phenotyping with recombinant human CYP1A2; conditions: for % Metabolized at 30 min Incubation with Human Liver Fractions/Enzymes rCYP1A2: 1 µM test compound, 100 pmol/mL; for % Contribution of CYP Enzymes (fmCYP) in Metabolism, CYP1A2 / Predicted Microsomal Clint, CYP1A2 / rCYP Clint, CYP1A2: human, recombinant human CYP1A2, 1 µM, pH 7.4
T3 sequence (P05177 1-516): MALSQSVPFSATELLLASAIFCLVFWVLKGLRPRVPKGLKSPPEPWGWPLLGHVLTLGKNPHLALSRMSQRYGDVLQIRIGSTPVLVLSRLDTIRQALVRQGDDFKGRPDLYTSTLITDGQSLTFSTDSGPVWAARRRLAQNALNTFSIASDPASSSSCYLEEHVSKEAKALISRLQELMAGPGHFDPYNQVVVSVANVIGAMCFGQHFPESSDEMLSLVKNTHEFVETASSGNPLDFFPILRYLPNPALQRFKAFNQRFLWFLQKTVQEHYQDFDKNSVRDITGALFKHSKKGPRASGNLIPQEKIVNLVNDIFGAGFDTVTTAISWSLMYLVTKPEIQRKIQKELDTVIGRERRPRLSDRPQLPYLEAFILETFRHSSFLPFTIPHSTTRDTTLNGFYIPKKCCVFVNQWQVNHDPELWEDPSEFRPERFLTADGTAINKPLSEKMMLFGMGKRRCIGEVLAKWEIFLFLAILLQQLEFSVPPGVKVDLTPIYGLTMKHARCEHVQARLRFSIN

[4] = Metabolic stability, incubation with human liver cytosol; format: in vitro ADME; conditions: 1 µM test compound, 1 mg/mL protein
rCYP2D6 = rCYP2D6 (Homo sapiens, UniProt P10635); experiment: Metabolic stability / reaction phenotyping with recombinant human CYP2D6; conditions: for % Metabolized at 30 min Incubation with Human Liver Fractions/Enzymes rCYP2D6: 1 µM test compound, 100 pmol/mL; for % Contribution of CYP Enzymes (fmCYP) in Metabolism, CYP2D6 / Predicted Microsomal Clint, CYP2D6 / rCYP Clint, CYP2D6: human, recombinant human CYP2D6, 1 µM, pH 7.4
CYP2C19 = CYP2C19 (Homo sapiens, UniProt P33261); experiment: CYP inhibition in human liver microsomes, CYP2C19; conditions: inhibitor 10 µM; HLM; NI: No Inhibitin; 10 µM
CYP3A4 [5] = biological target: T4, CYP3A4 (Homo sapiens, UniProt P08684); experiment: in vitro; conditions: microsomes, pH 7.4, % Inhibition of Control Activity CYP3A4 (substrate, testosterone)
CYP2D6 = CYP2D6 (Homo sapiens, UniProt P10635); experiment: CYP inhibition in human liver microsomes, CYP2D6; conditions: inhibitor 10 µM; HLM; NI: No Inhibitin; 10 µM
rCYP3A4 = rCYP3A4 (Homo sapiens, UniProt P08684); conditions: human, pH 7.4
CYP3A4 [6] = biological target: T4, CYP3A4; experiment: in vitro; conditions: microsomes, pH 7.4
CYP3A4 [7] = biological target: T4, CYP3A4; conditions: human, microsomes, 10 µM, pH 7.4
[8] = human, recombinant human CYP2C9, 1 µM, pH 7.4

T4 sequence (P08684 2-503): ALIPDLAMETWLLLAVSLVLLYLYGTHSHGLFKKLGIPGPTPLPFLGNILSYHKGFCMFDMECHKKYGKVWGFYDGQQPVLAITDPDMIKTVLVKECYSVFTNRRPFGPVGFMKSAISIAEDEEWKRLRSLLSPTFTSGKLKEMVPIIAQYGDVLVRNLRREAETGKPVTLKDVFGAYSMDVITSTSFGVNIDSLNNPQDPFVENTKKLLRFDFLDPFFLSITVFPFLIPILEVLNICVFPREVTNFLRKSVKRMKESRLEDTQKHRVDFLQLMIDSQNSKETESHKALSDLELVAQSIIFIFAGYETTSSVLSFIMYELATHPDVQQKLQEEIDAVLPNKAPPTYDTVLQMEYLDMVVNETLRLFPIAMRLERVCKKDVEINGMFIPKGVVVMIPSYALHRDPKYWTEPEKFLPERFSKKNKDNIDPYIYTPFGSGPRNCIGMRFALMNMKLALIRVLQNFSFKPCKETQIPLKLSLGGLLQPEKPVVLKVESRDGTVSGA
Sequence of rCYP2D6 (P10635 whole entry): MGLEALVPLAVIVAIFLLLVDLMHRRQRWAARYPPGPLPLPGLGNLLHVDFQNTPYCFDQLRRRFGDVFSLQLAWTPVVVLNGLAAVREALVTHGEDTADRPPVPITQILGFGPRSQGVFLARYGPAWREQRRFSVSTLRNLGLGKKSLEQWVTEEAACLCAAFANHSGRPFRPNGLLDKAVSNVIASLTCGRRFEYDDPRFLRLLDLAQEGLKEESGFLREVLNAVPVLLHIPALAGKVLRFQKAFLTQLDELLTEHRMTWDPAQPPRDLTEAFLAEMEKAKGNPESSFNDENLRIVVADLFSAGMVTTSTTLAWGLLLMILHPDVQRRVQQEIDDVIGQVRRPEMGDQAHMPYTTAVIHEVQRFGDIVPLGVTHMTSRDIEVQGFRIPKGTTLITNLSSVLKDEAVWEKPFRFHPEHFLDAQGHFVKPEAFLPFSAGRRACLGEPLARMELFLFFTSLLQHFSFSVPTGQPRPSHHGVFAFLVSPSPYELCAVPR
Sequence of rCYP2C9 (P11712 whole entry): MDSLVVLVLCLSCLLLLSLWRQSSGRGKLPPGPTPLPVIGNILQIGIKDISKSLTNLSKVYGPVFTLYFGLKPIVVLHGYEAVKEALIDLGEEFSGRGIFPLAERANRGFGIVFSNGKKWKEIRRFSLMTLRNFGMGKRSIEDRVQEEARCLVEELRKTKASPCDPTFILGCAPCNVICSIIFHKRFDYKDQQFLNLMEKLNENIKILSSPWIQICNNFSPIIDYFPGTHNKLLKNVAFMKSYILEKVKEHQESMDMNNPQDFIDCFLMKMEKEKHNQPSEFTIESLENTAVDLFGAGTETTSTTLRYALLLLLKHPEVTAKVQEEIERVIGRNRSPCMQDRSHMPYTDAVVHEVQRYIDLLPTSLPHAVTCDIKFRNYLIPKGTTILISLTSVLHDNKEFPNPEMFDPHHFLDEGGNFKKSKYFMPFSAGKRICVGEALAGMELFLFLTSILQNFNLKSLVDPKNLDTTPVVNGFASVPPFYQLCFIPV
Sequence of rCYP3A4 (P08684 whole entry): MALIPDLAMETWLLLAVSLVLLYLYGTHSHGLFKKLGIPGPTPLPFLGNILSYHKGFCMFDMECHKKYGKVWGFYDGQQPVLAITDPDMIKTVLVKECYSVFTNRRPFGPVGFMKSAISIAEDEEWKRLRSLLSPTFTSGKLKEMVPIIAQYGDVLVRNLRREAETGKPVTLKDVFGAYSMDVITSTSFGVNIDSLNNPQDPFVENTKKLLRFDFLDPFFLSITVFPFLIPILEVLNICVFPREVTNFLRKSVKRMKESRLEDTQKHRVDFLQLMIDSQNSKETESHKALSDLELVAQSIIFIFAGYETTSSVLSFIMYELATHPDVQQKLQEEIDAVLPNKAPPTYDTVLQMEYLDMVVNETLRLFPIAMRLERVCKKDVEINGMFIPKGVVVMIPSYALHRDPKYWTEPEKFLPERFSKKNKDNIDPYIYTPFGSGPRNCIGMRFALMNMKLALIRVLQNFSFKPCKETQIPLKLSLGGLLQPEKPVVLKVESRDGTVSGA
Sequence of rCYP2C19 (P33261 whole entry): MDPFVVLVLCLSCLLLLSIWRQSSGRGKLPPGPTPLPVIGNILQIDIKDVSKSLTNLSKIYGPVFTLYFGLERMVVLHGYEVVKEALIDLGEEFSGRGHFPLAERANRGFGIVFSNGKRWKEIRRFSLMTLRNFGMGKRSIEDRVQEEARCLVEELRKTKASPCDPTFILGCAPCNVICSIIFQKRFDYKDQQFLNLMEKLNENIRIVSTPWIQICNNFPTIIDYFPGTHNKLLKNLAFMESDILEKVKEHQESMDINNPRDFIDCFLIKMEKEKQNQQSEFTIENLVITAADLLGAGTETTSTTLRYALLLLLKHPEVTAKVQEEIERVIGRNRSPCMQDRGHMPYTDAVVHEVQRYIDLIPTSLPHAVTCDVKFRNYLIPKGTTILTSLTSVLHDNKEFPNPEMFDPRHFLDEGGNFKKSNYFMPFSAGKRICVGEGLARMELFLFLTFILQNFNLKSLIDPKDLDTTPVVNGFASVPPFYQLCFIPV
Sequence of CYP2C9 (P11712 whole entry): as the sequence (P11712 whole entry) above
Sequence of CYP2D6 (P10635 whole entry): as the sequence (P10635 whole entry) above
Sequence of CYP2C19 (P33261 whole entry): as the sequence (P33261 whole entry) above

Row | Compound | % Metabolized at 30 min Incubation with Human Liver Fractions/Enzymes HLM [2] [%] | inhibition at 2 µM (CYP2C8) [%] | inhibition at 10 µM (CYP2C8) [%] | % Metabolized at 30 min Incubation with Human Liver Fractions/Enzymes rCYP2C8 (rCYP2C8) [%] | % Contribution of CYP Enzymes (fmCYP) in Metabolism, CYP2C8 (rCYP2C8) [%] | Predicted Microsomal Clint, CYP2C8 (rCYP2C8) [µL/min/mg Protein] | rCYP Clint, CYP2C8 (rCYP2C8) [µL/min/pmol] | % Metabolized at 30 min Incubation with Human Liver Fractions/Enzymes rCYP2C9 (rCYP2C9) [%] | % Metabolized at 30 min Incubation with Human Liver Fractions/Enzymes rCYP2C19 (rCYP2C19) [%] | % Contribution of CYP Enzymes (fmCYP) in Metabolism, CYP2C19 (rCYP2C19) [%] | Predicted Microsomal Clint, CYP2C19 (rCYP2C19) [µL/min/mg Protein] | rCYP Clint, CYP2C19 (rCYP2C19) [µL/min/pmol] | % Inhibition of Control Activity CYP2C9 (CYP2C9) [%] | % Metabolized at 30 min Incubation with Human Liver Fractions/Enzymes rCYP1A2 (rCYP1A2) [%] | % Contribution of CYP Enzymes (fmCYP) in Metabolism, CYP1A2 (rCYP1A2) [%] | Predicted Microsomal Clint, CYP1A2 (rCYP1A2) [µL/min/mg Protein] | rCYP Clint, CYP1A2 (rCYP1A2) [µL/min/pmol] | % Metabolized at 30 min Incubation with Human Liver Fractions/Enzymes Cytosol [4] [%] | % Metabolized at 30 min Incubation with Human Liver Fractions/Enzymes rCYP2D6 (rCYP2D6) [%] | % Contribution of CYP Enzymes (fmCYP) in Metabolism, CYP2D6 (rCYP2D6) [%] | other results
1 | CC(=O)NC[C@H]1CN(c2ccc(N3CC[S+]([O-])CC3)c(F)c2)C(=O)O1 [sutezolid sulfoxide] | – | – | – | – | – | – | – | – | – | – | – | – | – | – | – | – | – | – | – | – | metabolite to parent (sutezolid sulfoxide/ sutezolid) median concentration ratio [1]: 7.1
2 | CCCSc1ccc2nc(NC(=O)OC)[nH]c2c1 [Albendazole, albendazole, reference compound] | 50.06 | < 0 | < 0 | 2.43 | 0.50 | 0.525 | 0.008 | 5.96 | 95.76 | 19.06 | 20.011 | 1.053 | 12.40 | 98.92 | 74.79 | 78.510 | 1.510 | 0.00 | 64.92 | 3.33 | increase of exposure [3]: 3.2 fold; % Contribution of CYP Enzymes (fmCYP) in Metabolism, CYP2C9 (rCYP2C9; [8]): 1.87%; Predicted Microsomal Clint, CYP2C9 (rCYP2C9; [8]): 1.966 µL/min/mg Protein; rCYP Clint, CYP2C9 (rCYP2C9; [8]): 0.020 µL/min/pmol; Predicted Microsomal Clint, CYP2D6 (rCYP2D6): 3.491 µL/min/mg Protein; rCYP Clint, CYP2D6 (rCYP2D6): 0.349 µL/min/pmol; % Inhibition of Control Activity CYP2C19 (CYP2C19): 4.20%
3 | O=C1Cc2cc(CCN3CCN(c4nsc5ccccc45)CC3)c(Cl)cc2N1 [Ziprasidone, ziprasidone, reference compound] | 83.11 | < 0 | 12 | 22.84 | 8.96 | 5.532 | 0.086 | 0.00 | 21.17 | 2.44 | 1.507 | 0.079 | 1.44 | 5.98 | 1.73 | 1.069 | 0.021 | 10.86 | 3.73 | 0.21 | inhibition at 2 µM (CYP3A4 [5]): 8.3%; % Inhibition of Control Activity CYP2D6 (CYP2D6): 11.70%; Predicted Microsomal Clint, CYP3A4 (rCYP3A4): 53.530 µL/min/mg Protein; % Metabolized at 30 min Incubation with Human Liver Fractions/Enzymes rCYP3A4 (rCYP3A4; recombinant enzyme, 0.5 h): 76.47%; % Contribution of CYP Enzymes (fmCYP) in Metabolism, CYP3A4 (rCYP3A4; recombinant enzyme): 86.67%; rCYP Clint, CYP3A4 (rCYP3A4; recombinant enzyme): 0.482 µL/min/pmol; inhibition at 2 µM (CYP3A4 [6]): 22%; inhibition at 10 µM (CYP3A4 [6]): 31.1%; % Inhibition of Control Activity CYP3A4 (substrate, testosterone) (CYP3A4 [7]): 33.06%; Predicted Microsomal Clint, CYP2D6 (rCYP2D6): 0.127 µL/min/mg Protein; rCYP Clint, CYP2D6 (rCYP2D6): 0.013 µL/min/pmol
